The subject of assay [1] is Platelet aggregation in dog PRP. Put plainly: In-Vitro Platelet Aggregation in PRP (ADP induced). It counts as cell-based. Particulars: Canis lupus familiaris; for IC50: ADP 50 μm, 37° C.; for inhibition at 10 µM: ADP, test concentration 1 × 10^-5. Here is the method:
In-Vitro Platelet Aggregation in PRP
(§1) Healthy male or female dogs were fasted for 8 hours prior to drawing blood; then 30 ml whole blood was collected using a butterfly needle and 30 cc plastic syringe with 3 ml of 0.129M buffered sodium citrate (3.8%). The syringe was rotated carefully as blood was drawn to mix the citrate. Platelet-rich plasma (PRP) was prepared by centrifugation at 975×g for 3.17 minutes at room temperature, allowing the centrifuge to coast to a stop without braking. The PRP was removed from the blood with a plastic pipette and placed in a plastic capped, 50 ml Corning conical sterile centrifuge tube which was held at room temperature. Platelet poor plasma (PPP) was prepared by centrifuging the remaining blood at 2000×g for 15 minutes at room temperature allowing the centrifuge to coast to a stop without braking. The PRP was adjusted with PPP to a count of 2-3×10^8 platelets per ml. 400 for 5-(p-cyanophenyl)pentanoic acid in Section C of Example 1.
as §1, with “400 μl of the PRP preparation and 50 μl of the compound to be tested or saline were preincubated” for “400”, “1 minute at 37° C.” for “5-(p-cyanophenyl)pentanoic acid”, “a BioData aggregometer (BioData, Horsham, Pa.). 50 μl” for “Section C”, “adenosine 5'diphosphate (ADP) (50 μm final concentration) was added to the cuvettes and the aggregation was monitored for 1 minute. All compounds are tested in duplicate. Results are calculated as follows:” for “Example 1.”
Percent of control=[(maximal OD minus initial OD of compound) divided by
(maximal OD minus initial OD of control saline)]×100. The %
inhibition=100-(percent of control).

Assay [2] concerns the target T1, fibrinogen binding to platelets (gpIIb/IIIa) (Homo sapiens, UniProt P05106+P08514).
T1 construct: endogenous in cells
The experiment in a line: Fibrinogen Binding Assay (125I-fibrinogen binding to ADP-activated platelets). Particulars: ADP 10 μM, 125I-fibrinogen 0.3 μM, 40 min at 37° C., read-out: Human Fg binding IC50. The method, then: Fibrinogen binding was performed essentially as described by Plow et al., Blood 70, 110-115 (1987). Briefly, blood from humans who had not been given any antiplatelet drugs in the previous two weeks was collected into 1/10th volume of CCD buffer (100 mM sodium citrates, 136 mM glucose, pH 6.5). The blood was centrifuged for 3 min at 1000×g and platelet rich plasma was transferred to a plastic tube with a plastic pipet and placed on ice. After 15 minutes, 1/2 volume of ice cold CCD buffer was added and the sample was centrifuged at 900×g for 10 min at 2° C. The supernatant was decanted and the platelet pellet was gently resuspended in 1/2 the original volume of ice cold modified Tyrode's buffer (137 mM NaCl, 2.6 mM KCl, 12 mM NaHCO3, 5.5 mM glucose, 15 mM HEPES, 0.5% BSA, pH 7.4). After incubating for 30 minutes at 37° C., the platelet count was adjusted to 4×10^8 platelets/ml with modified Tyrode's buffer. To test samples (final concentration=1×10^8 platelets/ml) were added in sequence: ADP (10 μM), CaCl2 (2 mM), test compound, and ^125 I-fibrinogen (0.3 μM) to the aforesaid final concentrations in a volume of 200 μl. The samples were incubated for 40 min at 37° C. and 50 μl aliquots were centrifuged at 8,000×g through a 20% sucrose solution (400 μl). The tubes were quick frozen and the tips containing the platelet pellet were cut and assayed for bound ^125 I-fibrinogen by gamma scintillation counting. Specific binding was determined in each test by subtracting from the total binding the amount of ^125 I-fibrinogen bound in the presence of a 60-fold excess of unlabeled fibrinogen.

The subject of assay [3] is ex vivo collagen induced platelet aggregation. The experiment in a line: Inhibition of ex vivo collagen induced aggregation. Format: in vivo, dog (Beagle). The note with it: dog, IV. Here is the method:
INHIBITION OF EX VIVO COLLAGEN INDUCED AGGREGATION BY COMPOUNDS OF THE INVENTION
PURPOSE--The purpose of this assay is to determine the effects of antiplatelet compounds on ex vivo collagen induced platelet aggregation when administered either intravenously or orally to dogs.
Pretreatment (control) blood samples are drawn from either conscious or anesthetized dogs (Beagles) and centrifuged to prepare platelet rich plasma (PRP). Aggregatory response to collagen is measured in an aggregometer and used as Control. Compounds are administered, either intragasterically (either by capsule or stomach tube or intravenously. Blood samples are drawn at predetermined intervals after compound administration, PRP prepared and aggregation to collagen determined. Compound inhibition of aggregation is determined by comparing the aggregation response after compound administration to the pretreatment response. The study is continued for a maximum of 24 hours or until the platelet aggregation returns to control levels. (If aggregation is still inhibited after 7 hours, a blood sample is drawn the following morning and tested.) Duration of activity is determined by the length of time platelet aggregation is inhibited after compound administration.

Assay [4] can be described thus: Canine intravenous infusion model. Format: in vivo.

SMILES strings stand for the structures. Where a name gives a salt, the structure may show the parent alone.

T1 sequence (P08514 32-887 limits assumed): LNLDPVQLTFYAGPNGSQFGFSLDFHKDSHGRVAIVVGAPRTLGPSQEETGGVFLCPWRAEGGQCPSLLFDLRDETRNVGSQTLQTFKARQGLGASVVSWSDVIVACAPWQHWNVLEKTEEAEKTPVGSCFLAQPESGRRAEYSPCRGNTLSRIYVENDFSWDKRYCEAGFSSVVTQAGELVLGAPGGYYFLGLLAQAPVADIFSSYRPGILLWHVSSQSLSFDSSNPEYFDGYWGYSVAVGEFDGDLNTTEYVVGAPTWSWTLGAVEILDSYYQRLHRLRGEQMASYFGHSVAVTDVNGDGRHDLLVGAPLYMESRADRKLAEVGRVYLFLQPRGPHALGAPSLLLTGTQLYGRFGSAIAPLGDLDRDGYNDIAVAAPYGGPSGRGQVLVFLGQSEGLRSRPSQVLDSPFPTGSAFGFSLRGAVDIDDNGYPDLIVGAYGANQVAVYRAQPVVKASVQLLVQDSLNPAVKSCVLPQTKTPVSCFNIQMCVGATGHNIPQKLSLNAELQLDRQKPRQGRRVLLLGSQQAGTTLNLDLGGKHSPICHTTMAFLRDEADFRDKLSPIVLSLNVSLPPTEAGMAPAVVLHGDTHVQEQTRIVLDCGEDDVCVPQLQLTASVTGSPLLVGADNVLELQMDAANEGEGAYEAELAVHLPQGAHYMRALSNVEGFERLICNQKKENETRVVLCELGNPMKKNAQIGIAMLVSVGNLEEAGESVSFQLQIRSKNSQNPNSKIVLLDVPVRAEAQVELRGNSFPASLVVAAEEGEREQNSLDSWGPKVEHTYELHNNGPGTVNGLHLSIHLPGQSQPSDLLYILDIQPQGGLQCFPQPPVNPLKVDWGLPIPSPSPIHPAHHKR
T1 sequence (P08514 891-1039 partner limits assumed): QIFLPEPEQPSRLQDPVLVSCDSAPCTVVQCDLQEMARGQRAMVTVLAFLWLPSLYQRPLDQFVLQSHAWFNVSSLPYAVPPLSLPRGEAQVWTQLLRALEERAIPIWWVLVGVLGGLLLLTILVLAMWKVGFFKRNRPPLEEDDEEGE
T1 sequence (P05106 27-788): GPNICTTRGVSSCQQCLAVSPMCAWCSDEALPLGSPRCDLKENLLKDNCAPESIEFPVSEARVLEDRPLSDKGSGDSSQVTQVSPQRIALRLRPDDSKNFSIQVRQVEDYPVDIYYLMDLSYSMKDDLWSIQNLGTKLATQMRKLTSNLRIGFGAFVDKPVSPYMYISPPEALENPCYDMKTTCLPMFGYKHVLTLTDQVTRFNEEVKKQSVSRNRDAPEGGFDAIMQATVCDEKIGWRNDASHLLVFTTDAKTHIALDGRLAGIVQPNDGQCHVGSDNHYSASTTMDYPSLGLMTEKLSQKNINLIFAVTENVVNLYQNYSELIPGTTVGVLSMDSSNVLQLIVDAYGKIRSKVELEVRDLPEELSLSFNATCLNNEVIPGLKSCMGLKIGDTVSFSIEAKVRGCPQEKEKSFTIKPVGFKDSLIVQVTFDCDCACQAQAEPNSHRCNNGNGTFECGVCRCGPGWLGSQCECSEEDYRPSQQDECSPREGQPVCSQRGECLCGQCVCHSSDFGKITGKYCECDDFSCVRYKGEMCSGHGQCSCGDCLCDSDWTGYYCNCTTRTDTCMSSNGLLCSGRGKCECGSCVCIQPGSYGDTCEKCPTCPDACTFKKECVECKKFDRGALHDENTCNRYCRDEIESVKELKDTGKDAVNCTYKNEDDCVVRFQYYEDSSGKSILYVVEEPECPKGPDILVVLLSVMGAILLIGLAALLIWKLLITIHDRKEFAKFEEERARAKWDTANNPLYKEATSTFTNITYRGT

Broadly, the IC50 is the concentration at which inhibition is half-maximal. A word on the inhibition: it is the change of the read-out against control, counted positive when it falls. Read a low inhibition as a response near the control. With `N=C(N)c1ccc(CCCCC(=O)N[C@@H](CC(=O)O)C(=O)NCCc2ccccc2)cc1` [3 S-[[5-[4-(aminoiminomethyl)phenyl]-1-oxopentyl]amino]-4-oxo-4-[(2-phenylethyl)amino]butanoic acid], the results for the 50% inhibitory concentration (IC50) in assay [1] and in assay [2] were 1900 nM and 200 nM, respectively. Moreover, the inhibition at 10 µM in assay [1] was found to be 100%.

Consider `N=C(N)c1ccc(C#CCCC(=O)N[C@@H](CC(=O)O)C(=O)N[C@@H](Cc2ccccc2)C(=O)O)cc1` [N-[5-[4-(aminoiminomethyl)phenyl]-1-oxo-4-pentynyl]-N-L-α-aspartyl-L-phenylalanine], for which the IC50 in assay [1] was 90 nM; in assay [2], 6 nM. For the same compound, testing at 10 µM in assay [1] gave an inhibition of 100%. In addition, the “Ex-vivo collagen induced aggregation, Max % Inhibition” value in assay [3] (0.005 mg/kg) is reported as 29%; in assay [3] (0.01 mg/kg), 83%; in assay [3] (0.1 mg/kg) it was 100%.

Consider `N=C(N)c1ccc(/C=C/CCC(=O)N[C@@H](CC(=O)O)C(=O)N[C@@H](Cc2ccccc2)C(=O)O)cc1` [N-[5-[4-(aminoiminomethyl)phenyl]-1-oxo-4E-pentenyl]-N-L-α-aspartyl-L-phenylalanine], for which the IC50 is 82 nM in assay [1] and 7 nM in assay [2]. Also, testing at 10 µM in assay [1] gave an inhibition of 100%.

What is called ED50 is the dose that gives a 50% effect, or the effect in half of the subjects. Read a high ED50 as weaker potency. `N=C(N)c1ccc(CCCCC(=O)N[C@@H](CC(=O)O)C(=O)N[C@@H](Cc2ccccc2)C(=O)O)cc1` [N-[N-[5-[4-(aminoiminomethyl)phenyl]-1-oxopentyl]-L-α-aspartyl]-L-phenylalanine] had an ED50 in assay [4] of 0.32 µg/kg/min.

Turning to `N=C(N)c1ccc(CCCCC(=O)N[C@@H](CC(=O)O)C(=O)N[C@@H](Cc2ccccc2)C(=O)O)cc1` [N-[N-[5-[4-aminoiminomethyl)phenyl-1-oxopentyl]-L-α-aspartyl]-L-phenylalanine, acetate salt], the IC50 in assay [1] stood at 53 nM; in assay [2], 8.3 nM. Besides, in assay [1], at 10 µM the inhibition was 100%. The “Ex-vivo collagen induced aggregation, Max % Inhibition” value in assay [3] (0.003 mg/kg) is 31%; in assay [3] (0.006 mg/kg), 84%.

As to `N=C(N)c1cccc(/C=C\CCCC(=O)N[C@@H](CC(=O)O)C(=O)N[C@@H](Cc2ccccc2)C(=O)O)c1` [N-[N-[6-[3-(aminoiminomethyl)phenyl]-1-oxo-5Z-hexenyl]-L-α-aspartyl]-L-phenylalanine], the IC50 is 4300 nM in assay [1] and 600 nM in assay [2]. This compound came in with an inhibition at 10 µM in assay [1] of 100%.
